Reference: US20230293630A1, “Coronavirus T Cell Epitopes and Uses Thereof” (priority 2020, published 2023)
Like-named read-outs stand apart in the source and are kept apart here.

System: SARS-CoV-2-specific CD4+ T cells (OX40+CD137+) in PBMC
Format: cell-based, human
[1] = CD4+ T cell epitopes identified by AIM assay, share of donors responding
[2] = CD4+ T cell epitopes identified by AIM assay, sum of response per responding donor
[3] = CD4+ T cell epitopes identified by AIM assay, total response
[4] = CD4+ T cell epitopes identified by AIM assay, percent of tested donors responding
[5] = CD4+ T cell epitopes identified by AIM assay, total response summed over donors

Sequence	Frequency of response (%) [1] [%]	Magnitude by # of responding donors [2]	Sum of response [3]	Frequency of response (%) [4] [%]	Sum of response [5]	Frequency of response (%)	Magnitude by # of responding donors	Sum of response
TFTRSTNSRIKASMP	8	120	120	–	–	–	–	–
TNCYDYCIPYNSVTS	7	402	402	–	–	–	–	–
LYENQKLIANQFNSA	7	195	195	–	–	–	–	–
SVLYNSASFSTFKCY	8	892	892	–	–	–	–	–
NLYDKLVSSFLEMKS	8	150	150	–	–	–	–	–
NHTKKWKYPQVNGLT	9	123	123	–	–	–	–	–
VNLTTRTQLPPAYTN	8	170	170	–	–	–	–	–
KNPLLYDANYFLCWH [SEQ ID NO 253]	–	112	–	7	112	–	–	–
PSGTWLTYTGAIKLD [SEQ ID NO 248]	–	–	–	–	–	42	517	2583
KPSKRSFIEDLLFNK	–	622	–	17	1243	–	–	–
NPVLPFNDGVYFAST	9	413	413	–	–	–	–	–
MFTPLVPFWITIAYI	8	602	602	–	–	–	–	–
LNQLTGYKKPASREL	8	168	168	–	–	–	–	–
TITSGWTFGAGAALQ	9	164	164	–	–	–	–	–
YPKCDRAMPNMLRIM	7	153	153	–	–	–	–	–
DSKTQSLLIVNNATN	9	108	108	–	–	–	–	–
LTGTGVLTESNKKFL	7	427	427	–	–	–	–	–
YVVDDPCPIHFYSKW	36	872	3488	–	–	–	–	–
VRIIMRLWLCWKCRS	14	131	261	–	–	–	–	–
GGDGKMKDLSPRWYF	15	148	295	–	–	–	–	–
LGRCDIKDLPKEITV	25	313	938	–	–	–	–	–
IDAYPLTKHPNQEYA	14	115	229	–	–	–	–	–
ILLNKHIDAYKTFPP	42	483	2416	–	–	–	–	–
TNILLNVPLHGTILT	25	543	1628	–	–	–	–	–
RYLALYNKYKYFSGA	15	708	1415	–	–	–	–	–
FNICQAVTANVNALL	6	220	220	–	–	–	–	–

Sequence	Frequency of response (%) [1] [%]	Magnitude by # of responding donors [2]	Sum of response [3]	Frequency of response (%) [4] [%]	Sum of response [5]	Frequency of response (%)	Magnitude by # of responding donors	Sum of response
WNSNNLDSKVGGNYN	9	101	101	–	–	–	–	–
SIVAGGIVAIVVTCL	9	109	109	–	–	–	–	–
NVPLHGTILTRPLLE	8	263	263	–	–	–	–	–
SFLGRYMSALNHTKK	9	219	219	–	–	–	–	–
QPYRVVVLSFELLHA	7	183	183	–	–	–	–	–
QMAYRFNGIGVTQNV	7	160	160	–	–	–	–	–
YRINWITGGIAIAMA	58	345	2417	–	–	–	–	–
RFYFYTSKTTVASLI	8	126	126	–	–	–	–	–
FLCWHTNCYDYCIPY	7	209	209	–	–	–	–	–
KVTFFPDLNGDVVAI [SEQ ID NO 257]	–	147	–	15	293	–	–	–
LNTDHSSSSDNIALL	8	568	568	–	–	–	–	–
IRGWIFGTTLDSKTQ	9	327	327	–	–	–	–	–
ITGGIAIAMACLVGL	17	207	414	–	–	–	–	–
SLLIVNNATNVVIKV	–	164	–	9	164	–	–	–
CLVGLMWLSYFIASF	–	–	–	–	–	33	295	1181
AYSNNSIAIPTNFTI	–	112	–	8	112	–	–	–
RRGPEQTQGNFGDQE	8	518	518	–	–	–	–	–
RAMPNMLRIMASLVL	7	144	144	–	–	–	–	–
LTQYNRYLALYNKYK	8	638	638	–	–	–	–	–
SEMVMCGGSLYVKPG	6	217	217	–	–	–	–	–
ASAFFGMSRIGMEVT	8	337	337	–	–	–	–	–
FIASFRLFARTRSMW	8	353	353	–	–	–	–	–
KEGQINDMILSLLSK	33	391	391	–	–	–	–	–
CCHLAKALNDFSNSG	8	111	111	–	–	–	–	–
AGNGGDAALALLLLD	–	–	–	–	–	21	416	1249
PRPPLNRNYVFTGYR	8	101	101	–	–	–	–	–

Sequence	Frequency of response (%) [1] [%]	Magnitude by # of responding donors [2]	Sum of response [3]	Frequency of response (%) [4] [%]	Sum of response [5]	Frequency of response (%)	Magnitude by # of responding donors	Sum of response
SIAIPTNFTISVTTE	8	274	274	–	–	–	–	–
TFGGPSDSTGSNQNG	6	291	291	–	–	–	–	–
HWFVTQRNFYEPQII	7	598	598	–	–	–	–	–
QDALFAYTKRNVIPT	6	132	132	–	–	–	–	–
TTVAAFHQECSLQSC	18	1008	2016	–	–	–	–	–
RGHLRIAGHHLGRCD	42	472	2359	–	–	–	–	–
SVLHSTQDLFLPFFS	15	305	609	–	–	–	–	–
SELVIGAVILRGHLR	–	–	–	–	–	33	141	563
TFKCYGVSPTKLNDL	8	221	221	–	–	–	–	–
CAQKFNGLTVLPPLL	–	741	–	9	741	–	–	–
FVSLAIDAYPLTKHP	14	115	230	–	–	–	–	–
DDQIGYYRRATRRIR [SEQ ID NO 245]	23	268	803	–	–	–	–	–
GSLVVRCSFYEDFLE	27	231	694	–	–	–	–	–
PCPIHFYSKWYIRVG	–	–	–	–	–	55	491	2948
LTYTGAIKLDDKDPN	17	742	1484	–	–	–	–	–
IKDLPKEITVATSRT	23	258	774	–	–	–	–	–
YIRVGARKSAPLIEL [SEQ ID NO 256]	–	366	–	18	731	–	–	–
VLAAVYRINWITGGI	42	504	2519	–	–	–	–	–
EKSNIIRGWIFGTTL	9	299	299	–	–	–	–	–
GIVNNTVYDPLQPEL	7	164	164	–	–	–	–	–
VTQNVLYENQKLIAN	14	353	705	–	–	–	–	–
LIFLWLLWPVTLACF	8	1194	1194	–	–	–	–	–
YLTFYLTNDVSFLAH	17	358	715	–	–	–	–	–
FVSGNCDVVIGIVNN	7	180	180	–	–	–	–	–
